From patent US20220363689A1, “INHIBITOR OF BTK AND MUTANTS THEREOF” (Newave Pharmaceutical Inc., priority 2019, published 2022)

Columns and labels:
Type in all cases: biochemical
WT BTK [1] = biological target: T1, WT BTK (Homo sapiens, UniProt Q06187); assay: In vitro dialysis assay (irreversibility assay), WT BTK; details: reversible or irreversible/covalent inhibition after 24 h dialysis
Procedure: The compound-enzyme complex was dialyzed against the same buffer supplemented with 40 mM ATP for 24 hr. Cumulative dialysis factor>160,000×. After dialysis, the BTK activity was measured in the presence […] and 1 mM substrate peptide and compared to that in non-dialyzed samples. Assay buffer: 100 mM HEPES, pH7.5; […]; 5 mM MgCl2; 1 mM DTT. In this study, Ibrutiib (a FDA approved irreversible BTK inhibitor) was used as a positive control and Saurosporine (a reversible BTK inhibitor) was used as a negative control.

WT BTK [2] = biological target: T1, WT BTK; assay: Caliper-based kinase assay, WT BTK; details: 0.5 nM enzyme, ATP 16 μM, room temperature 3 h; read-out: WT BTK IC50 (nM) (irreversible inhibition)
Procedure: (§1) A Caliper-based kinase assay (Caliper Life Sciences, Hopkinton, Mass.) was used to measure inhibition of WT and […] Btk kinase activity of a compound of the present disclosure. […] The reaction was then terminated with EDTA, final concentration 20 mM and the phosphorylated reaction product was quantified on a Caliper Desktop Profiler (Caliper LabChip 3000).

C481S Btk = C481S Btk (Homo sapiens, UniProt Q06187, C481S); assay: Caliper-based kinase assay, C481S BTK; details: 0.5 nM enzyme, ATP 16 μM, room temperature 3 h; read-out: C481S BTK IC50 (nM) (reversible inhibition)
Procedure: as §1

Sequence of C481S Btk (Q06187 whole entry C481S): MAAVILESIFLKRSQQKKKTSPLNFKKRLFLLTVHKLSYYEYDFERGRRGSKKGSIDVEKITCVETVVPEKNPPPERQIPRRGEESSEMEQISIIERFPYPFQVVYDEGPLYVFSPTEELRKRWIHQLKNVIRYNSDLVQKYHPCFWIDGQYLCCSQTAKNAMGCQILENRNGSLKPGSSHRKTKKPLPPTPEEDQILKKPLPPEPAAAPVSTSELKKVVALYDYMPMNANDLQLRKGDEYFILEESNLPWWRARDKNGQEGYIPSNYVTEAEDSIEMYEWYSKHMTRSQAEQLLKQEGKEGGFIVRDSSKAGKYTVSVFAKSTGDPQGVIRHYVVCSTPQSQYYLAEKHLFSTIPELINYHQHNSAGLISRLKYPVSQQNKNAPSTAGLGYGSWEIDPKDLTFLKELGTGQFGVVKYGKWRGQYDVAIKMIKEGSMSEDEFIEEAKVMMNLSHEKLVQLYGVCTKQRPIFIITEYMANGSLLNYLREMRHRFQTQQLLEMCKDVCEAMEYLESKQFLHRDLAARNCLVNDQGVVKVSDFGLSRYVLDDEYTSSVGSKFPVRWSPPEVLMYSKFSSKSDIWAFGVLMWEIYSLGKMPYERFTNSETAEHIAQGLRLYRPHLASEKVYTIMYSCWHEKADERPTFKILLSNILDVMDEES
T1 sequence (Q06187 whole entry): as the sequence (Q06187 whole entry C481S) above, with S481C counted along it

Compound	Conclusion (WT BTK) (WT BTK [1])	IC50 (WT BTK [2]) [nM]	IC50 (C481S Btk) [nM]
C=CC(=O)Nc1cc(Nc2nc(-c3ccnc(N4CCn5c(cc6c5CC(C)(C)C6)C4=O)c3C)cn(C)c2=O)ccc1N1CCN(C2CCOCC2)C[C@@H]1C [Example 40, N-(5-[[6-(2-[4,4-dimethyl-9-oxo-1,10-diazatricyclo[6.4.0.0^[2,6]]dodeca-2(6),7-dien-10-yl]-3-methylpyridin-4-yl)-4-methyl-3-oxopyrazin-2-yl]amino]-2-[(2S)-2-methyl-4-(oxan-4-yl)piperazin-1-yl]phenyl)prop-2-enamide]	Irreversible/covalent inhibition	0.083	
C=CC(=O)Nc1cc(Nc2nc(-c3ccnc(N4CCn5c(cc6c5CC(C)(C)C6)C4=O)c3CO)cn(C)c2=O)ccc1C1C(=O)N(C)CCN1C1COC1 (centres unmarked) [Example 41]	Irreversible/covalent inhibition	0.27	0.61
C=CC(=O)Nc1cc(Nc2nc(-c3ccnc(N4CCn5c(cc6c5CC(C)(C)C6)C4=O)c3CO)cn(C)c2=O)ccc1C1CN(C2COC2)CC(=O)N1C (centres unmarked) [Example 42, N-(5-[[6-(2-[4,4-dimethyl-9-oxo-1,10-diazatricyclo[6.4.0.0^[2,6]]dodeca-2(6),7-dien-10-yl]-3-(hydroxymethyl)pyri-din-4-yl)-4-methyl-3-oxopyrazin-2-yl]amino]-2-[1-methyl-4-(oxetan-3-yl)-6-oxopiperazin-2-yl]phenyl)prop-2-enamide]	Irreversible/covalent inhibition	0.24	0.3
C=CC(=O)Nc1cc(Nc2nc(-c3ccnc(N4CCn5c(cc6c5CC(C)(C)C6)C4=O)c3CO)cn(C)c2=O)ccc1N1CCN(C2CCOCC2)CC1C (centres unmarked) [Example 47, N-(5-((6-(2-(7,7-dimethyl-1-oxo-1,3,4,6,7,8-hexahydro-2H-cyclopenta[4,5]pyrrolo[1,2-a]pyrazin-2-yl)-3-(hydroxymethyl)pyridin-4-yl)-4-methyl-3-oxo-3,4-dihydropyrazin-2-yl)amino)-2-(2-methyl-4-(tetrahydro-2H-pyran-4-yl)piperazin-1-yl)phenyl)acrylamide]	Irreversible/covalent inhibition	0.12	
C=CC(=O)Nc1cc(Nc2nc(-c3ccnc(N4CCn5c(cc6c5CC(C)(C)C6)C4=O)c3CO)cn(C)c2=O)cc(F)c1N1CCN(C2COC2)C[C@@H]1C [Example 30, N-(5-[[6-(2-[4,4-dimethyl-9-oxo-1,10-diazatricyclo[6.4.0.0^[2,6]]dodeca-2(6),7-dien-10-yl]-3-(hydroxymethyl)pyridin-4-yl)-4-methyl-3-oxopyrazin-2-yl]amino]-3-fluoro-2-[(2S)-2-methyl-4-(oxetan-3-yl)piperazin-1-yl]phenyl)prop-2-enamide]		1.58	1.6
C=CC(=O)Nc1cc(Nc2nc(-c3ccnc(N4CCn5c(cc6c5CC(C)(C)C6)C4=O)c3C)cn(C)c2=O)ccc1N1CCN(C2COC2)CC1(C)C [Example 45, N-[2-[2,2-dimethyl-4-(oxetan-3-yl)piperazin-1-yl]-5-[[6-(2-[4,4-dimethyl-9-oxo-1,10-diazatricyclo[6.4.0.0^[2,6]]dodeca-2(6),7-dien-10-yl]-3-methylpyridin-4-yl)-4-methyl-3-oxopyrazin-2-yl]amino]phenyl]prop-2-enamide]	Irreversible/covalent inhibition	0.36	
C=CC(=O)Nc1cc(Nc2nc(-c3ccnc(N4CCn5c(cc6c5CC(C)(C)C6)C4=O)c3C)cn(C)c2=O)ccc1N1CCN(C2CCOCC2)C[C@@H]1C(F)(F)F [Example 53-R, N-(5-[[6-(2-[4,4-dimethyl-9-oxo-1,10-diazatricyclo[6.4.0.0^[2,6]]dodeca-2(6),7-dien-10-yl]-3-methylpyridin-4-yl)-4-methyl-3-oxopyrazin-2-yl]amino]-2-[(2R)-4-(oxan-4-yl)-2-(trifluoromethyl)piperazin-1-yl]phenyl)prop-2-enamide]	Irreversible/covalent inhibition	0.4	
C=CC(=O)Nc1cc(Nc2nc(-c3ccnc(N4CCc5c(sc6c5CCCC6)C4=O)c3CO)cn(C)c2=O)ccc1N1CCN(C2CCOCC2)C[C@@H]1C(F)(F)F [Example 55-R, N-[5-([6-[3-(hydroxymethyl)-2-[6-oxo-8-thia-5-azatricyclo[7.4.0.0^[2,7]]trideca-1(9), 2(7)-dien-5-yl]pyridin-4-yl]-4-methyl-3-oxopyrazin-2-yl]amino)-2-[(2R)-4-(oxan-4-yl)-2-(trifluoromethyl)piperazin-1-yl]phenyl]prop-2-enamide]	Irreversible/covalent inhibition	0.24	
C=CC(=O)Nc1cc(Nc2nc(-c3ccnc(N4CCn5c(cc6c5CC(C)(C)C6)C4=O)c3C)cn(C)c2=O)cnc1N1CCN(C2COC2)C[C@@H]1C [Example 46, N-(5-[[6-(2-[4,4-dimethyl-9-oxo-1,10-diazatricyclo[6.4.0.0^[2,6]]dodeca-2(6),7-dien-10-yl]-3-methylpyridin-4-yl)-4-methyl-3-oxopyrazin-2-yl]amino]-2-[(2S)-2-methyl-4-(oxetan-3-yl)piperazin-1-yl]pyridin-3-yl)prop-2-enamide]	Irreversible/covalent inhibition	0.16	
C=CC(=O)Nc1cc(Nc2nc(-c3ccnc(N4CCn5c(cc6c5CC(C)(C)C6)C4=O)c3C)cn(C)c2=O)ccc1N1CCN(C2CCOCC2)C[C@H]1C(F)(F)F [Example 53-S, N-(5-[[6-(2-[4,4-dimethyl-9-oxo-1,10-diazatricyclo[6.4.0.0^[2,6]]dodeca-2(6),7-dien-10-yl]-3-methylpyridin-4-yl)-4-methyl-3-oxopyrazin-2-yl]amino]-2-[(2S)-4-(oxan-4-yl)-2-(trifluoromethyl)piperazin-1-yl]phenyl)prop-2-enamide]	Irreversible/covalent inhibition	1	

Other lines, results leading:

Conclusion (WT BTK) (WT BTK [1])	IC50 (WT BTK [2]) [nM]	IC50 (C481S Btk) [nM]	Compound
Irreversible/covalent inhibition	0.04	0.4	C=CC(=O)Nc1cc(Nc2nc(-c3ccnc(N4CCn5c(cc6c5CC(C)(C)C6)C4=O)c3CO)cn(C)c2=O)ccc1N1CCC(N2CCN(C)CC2)CC1 [Example 21, N-(5-[[6-(2-[4,4-dimethyl-9-oxo-1,10-diazatricyclo[6.4.0.0^[2,6]]dodeca-2(6),7-dien-10-yl]-3-(hydroxymethyl)pyridin-4-yl)-4-methyl-3-oxopyrazin-2-yl]amino]-2-[4-(4-methylpiperazin-1-yl)piperidin-1-yl]phenyl)prop-2-enamide]
Irreversible/covalent inhibition	0.065		C=CC(=O)Nc1cc(Nc2nc(-c3ccnc(N4CCn5c(cc6c5CC(C)(C)C6)C4=O)c3CO)cn(C)c2=O)ccc1N1CCN(C2CCOCC2)C[C@@H]1C(F)(F)F [Example 48-R, N-(5-[[6-(2-[4,4-dimethyl-9-oxo-1,10-diazatricyclo[6.4.0.0^[2,6]]dodeca-2(6),7-dien-10-yl]-3-(hydroxymethyl)pyridin-4-yl)-4-methyl-3-oxopyrazin-2-yl]amino]-2-[(2R)-4-(oxan-4-yl)-2-(trifluoromethyl)piperazin-1-yl]phenyl)prop-2-enamide]
Irreversible/covalent inhibition	0.98		C=CC(=O)Nc1cc(Nc2nc(-c3ccnc(N4CCc5c(sc6c5CCCC6)C4=O)c3C)cn(C)c2=O)ccc1N1CCN(C2COC2)C[C@@H]1C [Example 44, (S)—N-(2-(2-methyl-4-(oxetan-3-yl)piperazin-1-yl)-5-((4-methyl-6-(3-methyl-2-(1-oxo-3,4,5,6,7,8-hexahydrobenzo [4, 5]thieno [2,3-c]pyridin-2(1H)-yl)pyridin-4-yl)-3-oxo-3,4-dihydropyrazin-2-yl)amino)phenyl) acrylamide]
Irreversible/covalent inhibition	2.9		C=CC(=O)Nc1cc(Nc2nc(-c3ccnc(N4CCc5c(sc6c5CCCC6)C4=O)c3C)cn(C)c2=O)ccc1N1CCN(C2CCOCC2)C[C@@H]1C(F)(F)F [Example 54-R, N-(5-[[4-methyl-6-(3-methyl-2-[6-oxo-8-thia-5-azatricyclo[7.4.0.0^[2,7]]trideca-1(9), 2(7)-dien-5-yl]pyridin-4-yl)-3-oxopyrazin-2-yl]amino]-2-[(2R)-4-(oxan-4-yl)-2-(trifluoromethyl)piperazin-1-yl]phenyl)prop-2-enamide]
Irreversible/covalent inhibition		0.46	C=CC(=O)Nc1cc(Nc2nc(-c3ccnc(N4CCc5c(sc6c5CC(C)(C)C6)C4=O)c3CO)cn(C)c2=O)ccc1N1CCN(C2COC2)C[C@@H]1C [Example 34, N-(5-[[6-(2-[4,4-dimethyl-9-oxo-7-thia-10-azatricyclo[6.4.0.0^[2,6]]dodeca-1(8),2(6)-dien-10-yl]-3-(hydroxymethyl)pyridin-4-yl)-4-methyl-3-oxopyrazin-2-yl]amino]-2-[(2S)-2-methyl-4-(oxetan-3-yl)piperazin-1-yl]phenyl)prop-2-enamide]
Irreversible/covalent inhibition	4.4		C=CC(=O)Nc1cc(Nc2nc(-c3ccnc(N4CCc5c(sc6c5CCCC6)C4=O)c3C)cn(C)c2=O)ccc1N1CCN(C2CCOCC2)C[C@H]1C(F)(F)F [Example 54-S, N-(5-[[4-methyl-6-(3-methyl-2-[6-oxo-8-thia-5-azatricyclo[7.4.0.0^[2,7]]trideca-1(9), 2(7)-dien-5-yl]pyridin-4-yl)-3-oxopyrazin-2-yl]amino]-2-[(2S)-4-(oxan-4-yl)-2-(trifluoromethyl)piperazin-1-yl]phenyl)prop-2-enamide]
